Counter-ions that a name gives are not always drawn.
Test system: AAD12 Soybean (GLXMA)
Experiment: Field crop tolerance trials (% visual injury, chlorosis, growth inhibition)
Method: These trials were conducted under field conditions in multiple states in the United States, including but not limited to Arkansas, Illinois, Indiana, Minnesota, Mississippi, Nebraska, Ohio, Oklahoma, Texas, South Carolina and South Dakota. […] Treatments were applied with small plot backpack sprayers, using pressurized air or carbon dioxide (CO2) as propellant. Pressure varied from 22-50 pounds per square inch (psi), with spray tips typically of a Flat Fan type applying water diluent at 15 gallons per acre (GPA). Boom sizes varied from 6.3-10 ft in width. Treatments were applied to soybean, cotton, corn or fallow crop land. Weed sizes varied, but all treatments were applied as post-emergence treatments to weeds from 2 leaf to 2 tiller growth stages varying from 2 to 15 inches in height. The weed spectrum included, but was not limited to, Amaranthus palmeri S. Wats. (Palmer amaranth, AMAPA), Conyza canadensis (L.) Cronq. (horseweed, ERICA), Salsola tragus L. (Russian thistle, SASKR) and Sesbania exaltata (hemp sesbania, SEBEX).
2,4-D- and glufosinate-tolerant soybeans, corn and cotton and optionally a glyphosate trait in a breeding (CP4 EPSPS) or a molecular stack (2mEPSPS) were used in all tolerance trials.
The 2,4-D-choline salt formulation was a 456 g ae/L SL. […] All treatments were mixed in water at appropriate formulated product rates to achieve the desired rates as shown based on a unit area of application (hectare). Treatments were rated at 2 to 28 days after application (DAA) as compared to the untreated control plants. The trial sites had naturally occurring populations of weeds. The treated plots and control plots were rated blind at various intervals after application. […]

Row | SMILES | Mean % crop growth inhibition (7DAA, 2130 g ae/ha) [%] | Mean % crop growth inhibition (14DAA, 2130 g ae/ha) [%] | Mean % crop growth inhibition (15DAA, 2130 g ae/ha) [%] | Mean % crop growth inhibition (7DAA, 1084 g ae/ha) [%] | Mean % crop growth inhibition (15DAA, 1084 g ae/ha) [%]
1 | O=C(O)COc1ccc(Cl)cc1Cl [2,4-D-Choline salt, 2-hydroxy-N,N,N-trimethylethanaminium 2-(2,4-dichlorophenoxy)acetate] | 1 | 0 | 0 |  | 
2 | CP(=O)(O)CCC(N)C(=O)O (centres unmarked) [Glufosinate-ammonium, ammonium (3-amino-3-carboxypropyl)(methyl)phosphinate] |  |  |  | 14.0 | 9.8

Reference: patent US20150157023A1, “S[…] CONTROL FROM COMBINATIONS OF 2,4-D-CHOLINE AND GLUFOSINATE” (Dow AgroSciences LLC, priority 2013, published 2015)
